Where only a bound is given, the exact number is not on record here.

For this experiment, the target named is GDP-loaded KRAS G12D (Homo sapiens, UniProt P01116, G12D). Nature of the experiment: KRAS G12D Probe Displacement Assay. The note with it: KRAS G12D 0.5 nM, biotinylated probe 2 4 nM; Table 6 letters; read-out: KRAS G12D Probe Displacement Assay IC50 (class). The class given is binding.
GDP-loaded KRAS G12D, sequence (P01116 1-188 isoform P01116-2 G12D): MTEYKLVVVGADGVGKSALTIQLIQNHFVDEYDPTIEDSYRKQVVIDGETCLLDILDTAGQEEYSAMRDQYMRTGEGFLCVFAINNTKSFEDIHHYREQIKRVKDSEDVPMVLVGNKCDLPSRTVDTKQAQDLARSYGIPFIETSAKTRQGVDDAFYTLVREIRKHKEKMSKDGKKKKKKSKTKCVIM

As usually defined, the IC50 is the midpoint of a concentration-inhibition curve. Take `Nc1cc(Cl)c(C(F)(F)F)c(-c2c(Cl)cc3c(N4C5CNCC4COC5)nc(OC[C@@]45CCCN4C[C@H](F)C5)nc3c2F)n1` [Example E107, 6-(4-(3-oxa-7,9-diazabicyclo[3.3.1]nonan-9-yl)-6-chloro-8-fluoro-2-(((2R,7aS)-2-fluorotetrahydro-1H-pyrrolizin-7a(5H)-yl)methoxy)quinazolin-7-yl)-4-chloro-5-(trifluoromethyl)pyridin-2-amine]: the IC50 was under 50 nM.

As for `C#Cc1cc(N)nc(-c2c(Cl)cc3c(N4CC5CCC(C4)N5)nc(OC[C@@]45CCCN4C[C@H](F)C5)nc3c2F)c1C(F)(F)F` [Example E108, 6-(4-(3,8-diazabicyclo[3.2.1]octan-3-yl)-6-chloro-8-fluoro-2-(((2R,7aS)-2-fluorotetrahydro-1H-pyrrolizin-7a(5H)-yl)methoxy)quinazolin-7-yl)-4-ethynyl-5-(trifluoromethyl)pyridin-2-aminp], the IC50 is under 50 nM. Regarding `N#Cc1cc(N)nc(-c2c(Cl)cc3c(N4CC5CCC(C4)N5)nc(OC[C@@]45CCCN4C[C@H](F)C5)nc3c2F)c1C(F)(F)F` [Example E109, 2-(4-(3,8-diazabicyclo[3.2.1]octan-3-yl)-6-chloro-8-fluoro-2-(((2R,7aS)-2-fluorotetrahydro-1H-pyrrolizin-7a(5H)-yl)methoxy)quinazolin-7-yl)-6-amino-3-(trifluoromethyl)isonicotinonitrile], the IC50 is under 50 nM.

As to `Oc1cc(F)c(C(F)(F)F)c(-c2c(F)cc3c(N4CC5CCC(C4)N5)nc(OC[C@@]45CCCN4C[C@H](F)C5)nc3c2F)c1` [Example E110, 3-(4-(3,8-diazabicyclo[3.2.1]octan-3-yl)-6,8-difluoro-2-(((2R,7aS)-2-fluorotetrahydro-1H-pyrrolizin-7a(5H)-yl)methoxy)quinazolin-7-yl)-5-fluoro-4-(trifluoromethyl)phenol], the IC50 is under 50 nM. As to `CN1C[C@H](F)C[C@H]1COc1nc(N2CC3CCC(C2)N3)c2cc(C(F)(F)F)c(-c3ccc(F)c4sc(N)c(C#N)c34)c(F)c2n1` [Example E111, 4-(4-(3,8-diazabicyclo[3.2.1]octan-3-yl)-8-fluoro-2-(((2S,4R)-4-fluoro-1-methylpyrrolidin-2-yl)methoxy)-6-(trifluoromethyl)quinazolin-7-yl)-2-amino-7-fluoro benzo[b]thiophene-3-carbonitrile], the IC50 is under 50 nM. As to `Cc1nc(N)nc(-c2c(Cl)cc3c(N4CC5CCC(C4)N5)nc(OC[C@@]45CCCN4C[C@H](F)C5)nc3c2F)c1C(F)(F)F` [Example E112, 4-(4-(3,8-diazabicyclo[3.2.1]octan-3-yl)-6-chloro-8-fluoro-2-(((2R,7aS)-2-fluorotetrahydro-1H-pyrrolizin-7a(5H)-yl)methoxy)quinazolin-7-yl)-6-methyl-5-(trifluoromethyl)pyrimidin-2-amine], the 50% inhibitory concentration (IC50) is under 50 nM.

In the case of `C#Cc1cc(N)nc(-c2c(Cl)cc3c(N4C5CCC4CNC5)nc(OC[C@@]45CCCN4C[C@H](F)C5)nc3c2F)c1C(F)(F)F` [Example E113, 6-(4-(3,8-diazabicyclo[3.2.1]octan-8-yl)-6-chloro-8-fluoro-2-(((2R,7aS)-2-fluorotetrahydro-1H-pyrrolizin-7a(5H)-yl)methoxy)quinazolin-7-yl)-4-ethynyl-5-(trifluoromethyl)pyridin-2-amine], the IC50 was under 50 nM. In the case of `Cc1cc(O)cc(-c2c(Cl)cc3c(N4CC5CCC(C4)N5)nc(OC[C@@]45CCCN4C[C@H](F)C5)nc3c2F)c1C(F)(F)F` [Example E114, 3-(4-(3,8-diazabicyclo[3.2.1]octan-3-yl)-6-chloro-8-fluoro-2-(((2R,7aS)-2-fluorotetrahydro-1H-pyrrolizin-7a(5H)-yl)methoxy)quinazolin-7-yl)-5-methyl-4-(trifluoromethyl)phenol], the IC50 was under 50 nM. With `C[C@@H](CN1C2CCC1CC(C#N)C2)Oc1nc(N2CC3CCC(C2)N3)c2cc(Cl)c(-c3ccc(F)c4sc(N)c(C#N)c34)c(F)c2n1` (stereo partly drawn) [Example E115, 8-((2S)-2-((7-(2-amino-3-cyano-7-fluorobenzo[b]thiophen-4-yl)-4-(3,8-diazabicyclo[3.2.1]octan-3-yl)-6-chloro-8-fluoroquinazolin-2-yl)oxy)propyl)-8-azabicyclo [3.2.1]octane-3-carbonitrile] the figure was under 50 nM. For the compound `C[C@@H](CN1CCC(F)CC1)Oc1nc(N2CC3CCC(C2)N3)c2cc(Cl)c(-c3ccc(F)c4sc(N)c(C#N)c34)c(F)c2n1` [Example E116, 4-(4-(3,8-diazabicyclo[3.2.1]octan-3-yl)-6-chloro-8-fluoro-2-(((S)-1-(4-fluoropiperidin-1-yl)propan-2-yl)oxy)quinazolin-7-yl)-2-amino-7-fluorobenzo[b]thiophene-3-carbonitrile], the IC50 is under 50 nM. The figure for `Cc1cc(N)nc(-c2cc3nc(OC[C@@]45CCCN4C[C@H](F)C5)nc(N4CC5CCC(C4)N5)c3cc2Cl)c1C(F)(F)F` [Example E117, 6-(4-(3,8-diazabicyclo[3.2.1]octan-3-yl)-6-chloro-2-(((2R,7aS)-2-fluorotetrahydro-1H-pyrrolizin-7a(5H)-yl)methoxy)quinazolin-7-yl)-4-methyl-5-(trifluoromethyl)pyridin-2-amine] is under 50 nM. Consider `Cc1cc(N)c(C#N)c(-c2c(Cl)cc3c(N4CC5CCC(C4)N5)nc(OC[C@@]45CCCN4C[C@H](F)C5)nc3c2F)c1I` [Example E118, 2-(4-(3,8-diazabicyclo[3.2.1]octan-3-yl)-6-chloro-8-fluoro-2-(((2R,7aS)-2-fluorotetrahydro-1H-pyrrolizin-7a(5H)-yl)methoxy)quinazolin-7-yl)-6-amino-3-iodo-4-methylbenzonitrile], for which the 50% inhibitory concentration (IC50) was under 50 nM. Regarding `Cc1cc(N)nc(-c2c(C#N)cc3c(N4CC5CCC(C4)N5)nc(OC[C@@]45CCCN4C[C@H](F)C5)nc3c2F)c1C(F)(F)F` [Example E119, 7-(6-amino-4-methyl-3-(trifluoromethyl)pyridin-2-yl)-4-(3,8-diazabicyclo [3.2.1]octan-3-yl)-8-fluoro-2-(((2R,7aS)-2-fluorotetrahydro-1H-pyrrolizin-7a(5H)-yl)methoxy) quinazoline-6-carbonitrile], the IC50 was under 50 nM. Turning to `Cc1cc2[nH]ncc2c(-c2c(Cl)cc3c(N4CC5CCC(C4)N5)nc(OC[C@@]45CCCN4C[C@H](F)C5)nc3c2F)c1Cl` [Example E120, 4-(3,8-diazabicyclo[3.2.1]octan-3-yl)-6-chloro-7-(5-chloro-6-methyl-1H-indazol-4-yl)-8-fluoro-2-(((2R,7aS)-2-fluorotetrahydro-1H-pyrrolizin-7a(5H)-yl)methoxy)quinazoline], the IC50 is under 50 nM.

With `CN1CCCC1(CC#N)COc1nc(N2CC3CCC(C2)N3)c2cc(C(F)(F)F)c(-c3ccc(F)c4sc(N)nc34)c(F)c2n1` (stereo not drawn) [Example E121, 2-(2-(((7-(2-amino-7-fluorobenzo[d]thiazol-4-yl)-4-(3,8-diazabicyclo[3.2.1]octan-3-yl)-8-fluoro-6-(trifluoromethyl)quinazolin-2-yl)oxy)methyl)-1-methylpyrrolidin-2-yl)acetonitrile], the 50% inhibitory concentration (IC50) was under 50 nM. As for `CN1C[C@H](F)C[C@]1(C)COc1nc(N2C3CNCC2COC3)c2cc(C(F)(F)F)c(-c3ccc(F)c4sc(N)nc34)c(F)c2n1` [Example E122, 4-(4-(3-oxa-7,9-diazabicyclo[3.3.1]nonan-9-yl)-8-fluoro-2-(((2R,4R)-4-fluoro-1,2-dimethylpyrrolidin-2-yl)methoxy)-6-(trifluoromethyl)quinazolin-7-yl)-7-fluorobenzo[d]thiazol-2-amine], the 50% inhibitory concentration (IC50) was under 50 nM.

Take `Oc1cc(Cl)c(C2CC2)c(-c2c(Cl)cc3c(N4CC5CCC(C4)N5)nc(OC[C@@]45CCCN4C[C@H](F)C5)nc3c2F)c1` [Example E123, 3-(4-(3,8-diazabicyclo[3.2.1]octan-3-yl)-6-chloro-8-fluoro-2-(((2R,7aS)-2-fluorotetrahydro-1H-pyrrolizin-7a(5H)-yl)methoxy)quinazolin-7-yl)-5-chloro-4-cyclopropylphenol]: the IC50 is under 50 nM. Turning to `N#CCCNC1C[C@H]2CC[C@@H]1N2c1nc(OC[C@@]23CCCN2C[C@H](F)C3)nc2c(F)c(-c3ccc(F)c4sc(N)nc34)c(C(F)(F)F)cc12` (stereo partly drawn) [Example E124, 3-(((1S,4R)-7-(7-(2-amino-7-fluorobenzo[d]thiazol-4-yl)-8-fluoro-2-(((2R,7aS)-2-fluorotetrahydro-1H-pyrrolizin-7a(5H)-yl)methoxy)-6-(trifluoromethyl)quinazolin-4-yl)-7-azabicyclo[2.2.1]heptan-2-yl)amino)propanenitrile], the IC50 was under 50 nM. The figure for `C=Cc1cc(N)nc(-c2c(Cl)cc3c(N4CC5CCC(C4)N5)nc(OC[C@@]45CCCN4C[C@H](F)C5)nc3c2F)c1C(F)(F)F` [Example E125, 6-(4-(3,8-diazabicyclo[3.2.1]octan-3-yl)-6-chloro-8-fluoro-2-(((2R,7aS)-2-fluorotetrahydro-1H-pyrrolizin-7a(5H)-yl)methoxy)quinazolin-7-yl)-5-(trifluoromethyl)-4-vinylpyridin-2-amine] is under 50 nM. For the compound `Oc1cc(F)c(C(F)(F)F)c(-c2c(Cl)cc3c(N4CC5CCC(C4)N5)nc(OC[C@@]45CCCN4C[C@H](F)C5)nc3c2F)c1` [Example E126, 3-(4-(3,8-diazabicyclo[3.2.1]octan-3-yl)-6-chloro-8-fluoro-2-(((2R,7aS)-2-fluorotetrahydro-1H-pyrrolizin-7a(5H)-yl)methoxy)quinazolin-7-yl)-5-fluoro-4-(trifluoromethyl)phenol], the concentration for half-maximal inhibition (IC50) was under 50 nM. For the compound `Nc1nc2c(-c3c(C(F)(F)F)cc4c(N5C6CNCC5C6)nc(OC[C@@]56CCCN5C[C@H](F)C6)nc4c3F)ccc(F)c2s1` [Example E127, 4-(4-(3,6-diazabicyclo[3.1.1]heptan-6-yl)-8-fluoro-2-(((2R,7aS)-2-fluorotetrahydro-1H-pyrrolizin-7a(5H)-yl)methoxy)-6-(trifluoromethyl)quinazolin-7-yl)-7-fluoro benzo[d]thiazol-2-amine], the IC50 is under 50 nM.
